Results as given in patent publication US20200085789A1, “USE OF A PROTEASOME INHIBITOR FOR THE TREATMENT OF CENTRAL NERVOUS SYSTEM (CNS) CANCERS” (Celgene International II Sàrl, priority 2017, published 2020).

Assay: Adverse events and dose-limiting toxicity (NCI-CTCAE v 4.03), MRZ ± BEV in recurrent grade IV malignant glioma patients
Type: in vivo, human
Excerpt: An adverse event (AE) is any noxious, unintended, or untoward medical occurrence that may appear or worsen in a subject during the course of a study. […] Any worsening (i.e., any clinically significant adverse change in the frequency or intensity of a pre-existing condition) should be considered an AE.
The severity/intensity of AEs will be graded based upon the subject's symptoms according to the current active minor version of the Common Terminology Criteria for Adverse Events ( ).

[1] = treated with MRZ 0.8 mg/m^2 + BEV (N = 27)

C[C@@]12OC(=O)[C@]1([C@@H](O)[C@@H]1C=CCCC1)NC(=O)[C@@H]2CCCl [MRZ, marizomib]
Fall: patients, worst Grade 2 (Part 1 N = 36, Part 2 N = 30): 1
Fatigue: patients, Total (Part 1 N = 36, Part 2 N = 30): 20
Fatigue: patients, worst Grade 1 (Part 1 N = 36, Part 2 N = 30): 8
Fatigue: patients, worst Grade 2 (Part 1 N = 36, Part 2 N = 30): 11
Fatigue: patients, worst Grade 3 (Part 1 N = 36, Part 2 N = 30): 2
Hallucination: patients, Total (Part 1 N = 36, Part 2 N = 30): 12
Hallucination: patients, worst Grade 1 (Part 1 N = 36, Part 2 N = 30): 6
Hallucination: patients, worst Grade 2 (Part 1 N = 36, Part 2 N = 30): 4
Hallucination: patients, worst Grade 3 (Part 1 N = 36, Part 2 N = 30): 1
Hallucination: patients, worst Grade 4 (Part 1 N = 36, Part 2 N = 30): 1
Headache: patients, Total (Part 1 N = 36, Part 2 N = 30): 14
Headache: patients, worst Grade 1 (Part 1 N = 36, Part 2 N = 30): 10
Headache: patients, worst Grade 2 (Part 1 N = 36, Part 2 N = 30): 3
Headache: patients, worst Grade 3 (Part 1 N = 36, Part 2 N = 30): 1
Hyperglycemia: patients, Total (Part 1 N = 36, Part 2 N = 30): 7
Hyperglycemia: patients, worst Grade 1 (Part 1 N = 36, Part 2 N = 30): 2
Hyperglycemia: patients, worst Grade 2 (Part 1 N = 36, Part 2 N = 30): 4
Hyperglycemia: patients, worst Grade 3 (Part 1 N = 36, Part 2 N = 30): 1−
Hypertension: patients, Total (Part 1 N = 36, Part 2 N = 30): 4
Hypertension: patients, worst Grade 1 (Part 1 N = 36, Part 2 N = 30): 1
Hypertension: patients, worst Grade 2 (Part 1 N = 36, Part 2 N = 30): 1
Hypertension: patients, worst Grade 3 (Part 1 N = 36, Part 2 N = 30): 2
Hypokalemia: patients, Total (Part 1 N = 36, Part 2 N = 30): 9
Hypokalemia: patients, worst Grade 1 (Part 1 N = 36, Part 2 N = 30): 7
Hypokalemia: patients, worst Grade 2 (Part 1 N = 36, Part 2 N = 30): 2
Infusion Site Reaction (includes edema, pain, phlebitis, redness): patients, Total (Part 1 N = 36, Part 2 N = 30): 5
Infusion Site Reaction: patients, worst Grade 1 (Part 1 N = 36, Part 2 N = 30): 3
Infusion Site Reaction: patients, worst Grade 2 (Part 1 N = 36, Part 2 N = 30): 2
Insomnia: patients, Total (Part 1 N = 36, Part 2 N = 30): 1.
Insomnia: patients, worst Grade 1 (Part 1 N = 36, Part 2 N = 30): 7
Insomnia: patients, worst Grade 2 (Part 1 N = 36, Part 2 N = 30): 5
Insomnia: patients, worst Grade 3 (Part 1 N = 36, Part 2 N = 30): 1
Nausea: patients, Total (Part 1 N = 36, Part 2 N = 30): 11
Nausea: patients, worst Grade 1 (Part 1 N = 36, Part 2 N = 30): 7
Nausea: patients, worst Grade 2 (Part 1 N = 36, Part 2 N = 30): 2
Nausea: patients, worst Grade 3 (Part 1 N = 36, Part 2 N = 30): 2
Platelet Count Decreased: patients, Total (Part 1 N = 36, Part 2 N = 30): 7
Platelet Count Decreased: patients, worst Grade 1 (Part 1 N = 36, Part 2 N = 30): 7
Vomiting: patients, Total (Part 1 N = 36, Part 2 N = 30): 10
Vomiting: patients, worst Grade 1 (Part 1 N = 36, Part 2 N = 30): 8
Vomiting: patients, worst Grade 3 (Part 1 N = 36, Part 2 N = 30): 2
marizomib-related adverse events ≥3: confusional state (Phase 1): 3
marizomib-related adverse events ≥3: headache (Phase 1): 3
patients with marizomib-related serious adverse events (Phase 1): Four
Grade 4 serious adverse event (hallucination, MRZ-related) (Phase 2 monotherapy): one
treatment-related Grade ≥3 AEs in two or more patients (Phase 2 monotherapy): fatigue, hallucination, lethargy
Grade 4 serious adverse event (hallucination, MRZ-related) (Phase 2 monotherapy, listed as marizomib): One
Anaemia: # Patients, AE related to the labelled drug(s) (pts on MRZ+BEV): 6
Anxiety: # Patients, AE related to the labelled drug(s) (pts on MRZ+BEV): 0
Aphasia: # Patients, AE related to the labelled drug(s) (pts on MRZ+BEV): 0
Appendicitis Perforated: # Patients, AE related to the labelled drug(s) (pts on MRZ+BEV): 0
Asthenia: # Patients, AE related to the labelled drug(s) (pts on MRZ+BEV): 0
Ataxia: # Patients, AE related to the labelled drug(s) (pts on MRZ+BEV): 6
Confusional State: # Patients, AE related to the labelled drug(s) (pts on MRZ+BEV): 6
Constipation: # Patients, AE related to the labelled drug(s) (pts on MRZ+BEV): 4
Convulsion: # Patients, AE related to the labelled drug(s) (pts on MRZ+BEV): 0
Delusion: # Patients, AE related to the labelled drug(s) (pts on MRZ+BEV): 1
Depressed Level of Consciousness: # Patients, AE related to the labelled drug(s) (pts on MRZ+BEV): 0
Diarrhoea: # Patients, AE related to the labelled drug(s) (pts on MRZ+BEV): 9
Dizziness: # Patients, AE related to the labelled drug(s) (pts on MRZ+BEV): 8
Dysarthria: # Patients, AE related to the labelled drug(s) (pts on MRZ+BEV): 1
Dysphagia: # Patients, AE related to the labelled drug(s) (pts on MRZ+BEV): 0
Dysphonia: # Patients, AE related to the labelled drug(s) (pts on MRZ+BEV): 0
Dyspnoea: # Patients, AE related to the labelled drug(s) (pts on MRZ+BEV): 0
Ear Infection: # Patients, AE related to the labelled drug(s) (pts on MRZ+BEV): 0
Embolism: # Patients, AE related to the labelled drug(s) (pts on MRZ+BEV): 0
Epistaxis: # Patients, AE related to the labelled drug(s) (pts on MRZ+BEV): 0
Falls: # Patients, AE related to the labelled drug(s) (pts on MRZ+BEV): 3
Fatigue: # Patients, AE related to the labelled drug(s) (pts on MRZ+BEV): 1
Fracture of Femur: # Patients, AE related to the labelled drug(s) (pts on MRZ+BEV): 0
Haemorrhage Intracranial: # Patients, AE related to the labelled drug(s) (pts on MRZ+BEV): 0
Hallucination: # Patients, AE related to the labelled drug(s) (pts on MRZ+BEV): 11
Headache: # Patients, AE related to the labelled drug(s) (pts on MRZ+BEV): 5
Hemiparesis: # Patients, AE related to the labelled drug(s) (pts on MRZ+BEV): 0
Hyperglycemia: # Patients, AE related to the labelled drug(s) (pts on MRZ+BEV): 0
Hypertension: # Patients, AE related to the labelled drug(s) (pts on MRZ+BEV): 0
Hypokalemia: # Patients, AE related to the labelled drug(s) (pts on MRZ+BEV): 0
Hyponatremia: # Patients, AE related to the labelled drug(s) (pts on MRZ+BEV): 1
Hypotension: # Patients, AE related to the labelled drug(s) (pts on MRZ+BEV): 0
Infusion Site Pain: # Patients, AE related to the labelled drug(s) (pts on MRZ+BEV): 6
Insomnia: # Patients, AE related to the labelled drug(s) (pts on MRZ+BEV): 1
Lymphocyte Count Decreased: # Patients, AE related to the labelled drug(s) (pts on MRZ+BEV): 0
Muscular Weakness: # Patients, AE related to the labelled drug(s) (pts on MRZ+BEV): 2
Nausea: # Patients, AE related to the labelled drug(s) (pts on MRZ+BEV): 19
Optic Nerve Disorder: # Patients, AE related to the labelled drug(s) (pts on MRZ+BEV): 0
Pyramidal Tract Syndrome: # Patients, AE related to the labelled drug(s) (pts on MRZ+BEV): 0
Tumor Metastasis: # Patients, AE related to the labelled drug(s) (pts on MRZ+BEV): 0
Vision Blurred: # Patients, AE related to the labelled drug(s) (pts on MRZ+BEV): 3
Vomiting: # Patients, AE related to the labelled drug(s) (pts on MRZ+BEV): 12
time of onset of CNS adverse events (range): from the day of treatment to six days post-marizomib infusion
Anaemia related to the labelled drug(s) [1]: (18.5%)
Anaemia related to the labelled drug(s), patients [1]: 5
Ataxia related to the labelled drug(s) [1]: (25.9%)
Ataxia related to the labelled drug(s), patients [1]: 7
Confusional state related to the labelled drug(s) [1]: (25.9%)
Confusional state related to the labelled drug(s), patients [1]: 7
Constipation related to the labelled drug(s) [1]: (18.5%)
Constipation related to the labelled drug(s), patients [1]: 5
Diarrhoea related to the labelled drug(s) [1]: (29.6%)
Diarrhoea related to the labelled drug(s), patients [1]: 8
Dizziness related to the labelled drug(s) [1]: (29.6%)
Dizziness related to the labelled drug(s), patients [1]: 8
Dysphonia related to the labelled drug(s) [1]: (3.7%)
Dysphonia related to the labelled drug(s), patients [1]: 1
Epistaxis related to the labelled drug(s) [1]: (0.0%)
Epistaxis related to the labelled drug(s), patients [1]: 0
Fall related to the labelled drug(s) [1]: (11.1%)
Fall related to the labelled drug(s), patients [1]: 3
Fatigue related to the labelled drug(s) [1]: (70.4%)
Fatigue related to the labelled drug(s), patients [1]: 19
Hallucination related to the labelled drug(s) [1]: (44.4%)
Hallucination related to the labelled drug(s), patients [1]: 12
Headache related to the labelled drug(s) [1]: (44.4%)
Headache related to the labelled drug(s), patients [1]: 12
Hypertension related to the labelled drug(s) [1]: (3.7%)
Hypertension related to the labelled drug(s), patients [1]: 1
Infusion site pain related to the labelled drug(s) [1]: (14.8%)
Infusion site pain related to the labelled drug(s), patients [1]: 4
Muscular weakness related to the labelled drug(s) [1]: (11.1%)
Muscular weakness related to the labelled drug(s), patients [1]: 3
Nausea related to the labelled drug(s) [1]: (63.0%)
Nausea related to the labelled drug(s), patients [1]: 17
Platelet count decreased related to the labelled drug(s) [1]: (7.4%)
Platelet count decreased related to the labelled drug(s), patients [1]: 2
Stomatitis related to the labelled drug(s) [1]: (11.1%)
Stomatitis related to the labelled drug(s), patients [1]: 3
Upper-airway cough syndrome related to the labelled drug(s) [1]: (0.0%)
Upper-airway cough syndrome related to the labelled drug(s), patients [1]: 0
Vomiting related to the labelled drug(s) [1]: (55.6%)
Vomiting related to the labelled drug(s), patients [1]: 15
